Experimental data: US9951065B2 (Gilead Sciences, Inc., priority 2015, dated 2018)

Molecular target: T1, IDO1 (Homo sapiens, UniProt P14902)
T1 construct: HeLa cells were treated with a test compound in the presence of IFNγ, which induces IDO1 expression; host or cells: H1-HeLa cells, IDO1 induced with IFNγ
Experiment: Cell-based (HeLa) assay for measurement of IDO1 inhibition (kynurenine levels in supernatant after IFNγ induction)
Details: HeLa cells, geometric mean of a minimum of four determinations
How it was run: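 HeLa cells, 1,250 per well, treated with compound (0.5% DMSO final) plus IFNγ to induce IDO1, for 48 h. Supernatant kynurenine measured by TCA hydrolysis at 60 °C, then p-dimethylaminobenzaldehyde, absorbance 480 nm. EC50 from a four-parameter fit normalized to −/+IFNγ controls; geometric mean of at least four runs.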

[1] = IFNγ-induced IDO1, kynurenine in supernatant after 48 hour incubation
[2] = IFNγ-induced IDO1, kynurenine in supernatant, 48 hour incubation

T1 sequence (P14902 whole entry): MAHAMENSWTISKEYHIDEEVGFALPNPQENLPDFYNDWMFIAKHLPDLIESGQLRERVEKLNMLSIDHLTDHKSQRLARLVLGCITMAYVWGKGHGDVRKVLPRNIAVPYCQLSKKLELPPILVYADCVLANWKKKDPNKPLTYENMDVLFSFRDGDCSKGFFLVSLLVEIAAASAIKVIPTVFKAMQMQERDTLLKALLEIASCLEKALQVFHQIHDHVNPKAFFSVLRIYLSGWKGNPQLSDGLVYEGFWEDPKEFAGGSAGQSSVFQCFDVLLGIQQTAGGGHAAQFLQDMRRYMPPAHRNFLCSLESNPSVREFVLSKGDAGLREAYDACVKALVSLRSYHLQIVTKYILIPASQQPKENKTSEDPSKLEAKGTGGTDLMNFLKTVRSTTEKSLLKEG

Compound | EC50 [1] [µM] | EC50 [2] [µM]
NCc1nc2c(F)c(F)cc(/C(=N/O)Nc3cccc(Cl)c3)c2[nH]1 [Example 31, 2-(Aminomethyl)-N-(3-chlorophenyl)-4,5-difluoro-N′-hydroxy-1H-benzo[d]imidazole-7-carboximidamide] | 1.68 | 
CC(=O)NCCNc1nc2c(F)c(F)cc(/C(=N/O)Nc3ccc(F)c(Cl)c3)c2[nH]1 [Example 334, N-(2-((7-(N-(3-chloro-4-fluorophenyl)-N′-hydroxycarbamimidoyl)-4,5-difluoro-1H-benzo[d]imidazol-2-yl)amino)ethyl)acetamide] |  | 6.12
CN(C)Cc1nc2nccc(/C(=N/O)Nc3ccc(F)c(Cl)c3)c2[nH]1 [Example 113, N-(3-Chloro-4-fluorophenyl)-2-((dimethylamino)methyl)-N′-hydroxy-1H-imidazo[4,5-b]pyridine-7-carboximidamide] | 1.84 | 
CN(C)C1(CNc2nc3c(F)c(F)cc(/C(=N/O)Nc4ccc(F)c(Cl)c4)c3[nH]2)CCCCC1 [Example 450, N-(3-chloro-4-fluorophenyl)-2-(((1-(dimethylamino)cyclohexyl)methyl)amino)-4,5-difluoro-N′-hydroxy-1H-benzo[d]imidazole-7-carboximidamide] |  | 1.59
O/N=C(\Nc1ccc(F)c(Cl)c1)c1ccnc2nc(-c3ccn[nH]3)[nH]c12 [Example 150, N-(3-Chloro-4-fluorophenyl)-N′-hydroxy-2-(1H-pyrazol-5-yl)-1H-imidazo[4,5-b]pyridine-7-carboximidamide] | 8.48 | 
COCCN1CCC(Nc2nc3c(F)c(F)cc(/C(=N/O)Nc4ccc(F)c(Cl)c4)c3[nH]2)C1 (stereo not shown) [Example 454, N-(3-chloro-4-fluorophenyl)-4,5-difluoro-N′-hydroxy-2-((1-(2-methoxyethyl)pyrrolidin-3-yl)amino)-1H-benzo[d]imidazole-7-carboximidamide] |  | 0.247
CC(C)NCc1nc2c(F)c(F)cc(/C(=N/O)Nc3cccc(Cl)c3)c2[nH]1 [Example 27, N-(3-Chlorophenyl)-4,5-difluoro-N′-hydroxy-2-((isopropylamino)methyl)-1H-benzo[d]imidazole-7-carboximidamide] | 0.839 | 
Nc1ccccc1CNc1nc2c(F)c(F)cc(/C(=N/O)Nc3ccc(F)c(Cl)c3)c2[nH]1 [Example 347, 2-((2-aminobenzyl)amino)-N-(3-chloro-4-fluorophenyl)-4,5-difluoro-N′-hydroxy-1H-benzo[d]imidazole-7-carboximidamide] |  | 3.27
O/N=C(\Nc1ccc(F)c(Cl)c1)c1ccnc2nc(NCC(F)F)[nH]c12 [Example 225, N-(3-chloro-4-fluorophenyl)-2-((2,2-difluoroethyl)amino)-N′-hydroxy-1H-imidazo[4,5-b]pyridine-7-carboximidamide] | 2.19 | 
CN(C)CCNc1nc2c(F)ccc(/C(=N/O)Nc3ccc(F)c(Br)c3)c2[nH]1 [Example 382, N-(3-bromo-4-fluorophenyl)-2-((2-(dimethylamino)ethyl)amino)-4-fluoro-N′-hydroxy-1H-benzo[d]imidazole-7-carboximidamide] |  | 0.608
O/N=C(\Nc1ccc(F)c(Cl)c1)c1ccnc2nc(CNCC3CCCOC3)[nH]c12 (stereo not shown) [Example 129, N-(3-Chloro-4-fluorophenyl)-N′-hydroxy-2-((((tetrahydro-2H-pyran-3-yl)methyl)amino)methyl)-1H-imidazo[4,5-b]pyridine-7-carboximidamide] | 2.58 | 
O/N=C(\Nc1ccc(F)c(Cl)c1)c1ccnc2nc(NCCN3CCCC3)[nH]c12 [Example 283, N-(3-chloro-4-fluorophenyl)-N′-hydroxy-2-((2-(pyrrolidin-1-yl)ethyl)amino)-1H-imidazo[4,5-b]pyridine-7-carboximidamide] | 2.72 | 
O/N=C(\Nc1ccc(F)c(Cl)c1)c1ccnc2nc(NCCN3CCC[C@H]3C(F)(F)F)[nH]c12 [Example 481, (S)-N-(3-chloro-4-fluorophenyl)-N′-hydroxy-2-((2-(2-(trifluoromethyl)pyrrolidin-1-yl)ethyl)amino)-1H-imidazo[4,5-b]pyridine-7-carboximidamide] |  | 0.76
